Data: ChEMBL document CHEMBL5108072, “Discovery of Chlorofluoroacetamide-Based Covalent Inhibitors for Severe Acute Respiratory Syndrome Coronavirus 2 3CL Protease” (J Med Chem, 2022)

Assays:
SARS-CoV-2 [1] = assay: microbe, parasite or virus in culture; conditions: Severe acute respiratory syndrome coronavirus 2, omicron TY38-873 BA.2, HEK-293T
SARS-CoV-2 [2] = assay: microbe, parasite or virus in culture; conditions: Severe acute respiratory syndrome coronavirus 2, omicron TY38-873 BA.1, HEK-293T

SMILES | EC50 (SARS-CoV-2 [1]) [nM] | EC50 (SARS-CoV-2 [2]) [nM]
CC(C)C[C@H](NC(=O)c1cc2c(F)cccc2[nH]1)C(=O)NN(C[C@@H]1CCNC1=O)C(=O)[C@@H](F)Cl | 126 | 35.6
COc1cccc2[nH]c(C(=O)N[C@@H](CC(C)C)C(=O)N[C@@H](C[C@@H]3CCNC3=O)C(=O)CO)cc12 [PF-00835231] | 832 | 775
CC(C)C[C@H](NC(=O)c1cc2c(F)cccc2[nH]1)C(=O)NN(C[C@H]1CCNC1=O)C(=O)[C@H](F)Cl | 131 | 58.7
COc1cccc2[nH]c(C(=O)N[C@@H](CC(C)C)C(=O)NN(C[C@@H]3CCNC3=O)C(=O)[C@H](F)Cl)cc12 | 18.3 | 10.1
CC(C)C[C@H](NC(=O)c1cc2c(F)cccc2[nH]1)C(=O)NN(C[C@@H]1CCNC1=O)C(=O)[C@H](F)Cl | 17.1 | 9.01
O=c1nc(NO)ccn1[C@@H]1O[C@H](CO)[C@@H](O)[C@H]1O [N-HYDROXYCYTIDINE] | 336 | 574
COc1cccc2[nH]c(C(=O)N[C@@H](CC(C)C)C(=O)NN(C[C@H]3CCNC3=O)C(=O)[C@H](F)Cl)cc12 | 121 | 58.8
